Results as given in PMC10146949, “Cytotoxicity Profiles and Neuroprotective Properties of the Novel Ifenprodil Analogues as Sigma Ligands” (Molecules, 2023).
Values after ≈ are worked out from the molar mass of the structure shown. Where two headings read alike, the source gives them in different places.

Legend:
S2R [1] = target: T1, S2R (Rattus norvegicus, UniProt Q5U3Y7); experiment: S2R radioligand binding assay, [3H]DTG, rat liver membranes
T1 construct: A few rat livers were homogenized in cold 0.32 M sucrose with a Potter-Elvehjem glass homogenizer; tissue ENVIGO RMS S.R.L., Udine, Italy (animals); host or cells: Sprague Dawley rat liver membranes
T1 sequence (Q5U3Y7 1-176): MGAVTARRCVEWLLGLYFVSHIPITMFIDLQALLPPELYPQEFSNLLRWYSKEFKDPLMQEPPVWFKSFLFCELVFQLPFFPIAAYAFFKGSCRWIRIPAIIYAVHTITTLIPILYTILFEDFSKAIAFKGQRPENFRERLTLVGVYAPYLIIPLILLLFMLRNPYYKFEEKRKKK

S1R [2] = target: T2, S1R (Cavia porcellus, UniProt Q60492); experiment: S1R radioligand binding assay, [3H](+)-pentazocine, guinea pig brain cortex homogenates; conditions: for S2R/S1R selectivity ratio: ratio of Ki S2R to Ki S1R
T2 construct: Fresh guinea pig brain cortex was homogenized in ice-cold Tris (50 mM, pH 7.4); tissue ENVIGO RMS S.R.L., Udine, Italy (animals); host or cells: male Dunkin-Hartley guinea pig brain cortex membranes
Experimental: The bound radioactivity has been determined using a Beckman LS 6500 liquid scintillation counter (Beckman Coulter, Brea, CA, USA).
The test compound solutions were prepared by dissolving approximately 10 µmol of the test compound in DMSO to obtain a 10 mM stock solution.
Fresh guinea pig brain cortex was homogenized in ice-cold Tris (50 mM, pH 7.4) containing cold 0.32 M sucrose with a Potter-Elvehjem glass homogenizer. […] The final pellet was resuspended in ice-cold Tris buffer, and frozen at −80 °C. The protein concentration was determined by the method of Bradford [42].
Bound and free radioligand were separated by fast filtration under reduced pressure using a Millipore filter apparatus through Whatman GF 6 glass fiber filters, which were presoaked in a 0.5% poly(ethyleneimine) water solution for 120 min. Each filter paper was rinsed three times with 3 mL of ice-cold Tris buffer (50 mM, pH 7.4), dried at room temperature, and incubated overnight with 3 mL of Ultima Gold MV Scintillation cocktail into pony vials.
The Ki-values were calculated with the program GraphPad Prism® 6.0 (GraphPad Software, San Diego, CA, USA). The Ki-values are given as the mean value ± SD from at least two independent experiments performed in duplicate.

[3] = system: NRF2 gene expression in SH-SY5Y cells; experiment: Real-Time PCR of NRF2 mRNA levels; conditions: 12.5 µM, 12 h; for effect on NRF2 expression (in words): vs DMSO
Experimental: (§1) Total RNA (500 ng) was primed with hexameric random primers and retrotranscribed into cDNA with M-MLV reverse transcriptase (Thermo Fisher Scientific, Waltham, MA, USA). The normalization of targets’ gene expression was performed against the housekeeping gene RPL13A. Real-Time PCRs were performed by using iQ SYBR Green Supermix and CFX96 Real-Time PCR detection system (Bio-Rad Laboratories, Redmond, WA, USA). The relative expression levels were calculated using the 2^−∆∆CT method. An unpaired T-test was used to determine statistical significance. Values are presented as mean and error bars indicate standard errors (SE). The results are representative of two independent experiments in triplicate.

[4] = Cytotoxicity, resazurin cell viability test; type: cell-based, human; conditions: human
Experimental: (§2) Cell viability was tested by using Resazurin (SERVA Electrophoresis GmbH, Heidelberg, Germany), which in metabolically active cells is reduced to Resufurin, a redox indicator, whose fluorescence is proportional to the number of live cells [43, 44].
(§3) The percentage of viability was calculated after subtraction of the background (obtained by killing the cells), on the basis of the ratio between the fluorescence values of the cells incubated with a compound and the fluorescence values of cells incubated with the solvent (1% DMSO). The viability of cells incubated with 1% DMSO was considered to be equivalent to 100%.
(§4) The statistical analysis was carried out with GraphPad Prism® 6.0 (GraphPad Software, Inc, La Jolla, CA, USA) software using an unpaired t-test. p < 0.05 was considered statistically significant. Cytotoxicity concentrations (IC50s) were determined from dose-response curves analyzed by using GraphPad Prism software.

[5] = Hydrogen peroxide scavenging; conditions: H2O2 2 mM, 230 nm
ABTS radical scavenging = conditions: ABTS 7 mM ethanolic, 45 min, 735 nm
Experimental: The compounds’ antioxidant capacity was evaluated by bleaching the green colored ethanolic solution of ABTS [41]. Test compounds (300 μL) were diluted as follows: 0.01, 0.025, 0.05, 0.1, and 0.2 mg/mL and added to 2.7 mL of ethanolic solution of ABTS (7 mM). These mixtures were incubated for 45 min at room temperature, and the absorbances were recorded at λ = 735 nm against the ABTS solution. The results were obtained as the percent of inhibition (% IC) of ABTS radical, calculated by the following formula. % IC = [(Abs ABTS − Abs Sample)/Abs ABTS] × 100
Data were expressed as mean value ± SD, and the assay was performed in triplicate.
The % IC was used to determine the IC50 values.

[6] = system: SOD1 gene expression in SH-SY5Y cells; experiment: Real-Time PCR of SOD1 mRNA levels; conditions: 12.5 µM, 12 h; for effect on SOD1 expression (in words): vs DMSO
Experimental: as §1

S1R [7] = conditions: cited from earlier work
S1R [8] = experiment: S1R affinity taken from the literature; type: binding; conditions: ifenprodil, from literature Ki values
Excerpt: Table 2 Binding affinities towards S1R and S2R, for compounds 5a–o.

S2R [9] = target: S2R; parameters: method as in PMID 31319263; conditions: ifenprodil, Table 2 footnote b; cited from earlier work
SH-SY5Y cells = experiment: Cytotoxicity, resazurin cell viability test; type: cell-based, human
Experimental: as §2, §3, §4

T2 sequence (Q60492 whole entry): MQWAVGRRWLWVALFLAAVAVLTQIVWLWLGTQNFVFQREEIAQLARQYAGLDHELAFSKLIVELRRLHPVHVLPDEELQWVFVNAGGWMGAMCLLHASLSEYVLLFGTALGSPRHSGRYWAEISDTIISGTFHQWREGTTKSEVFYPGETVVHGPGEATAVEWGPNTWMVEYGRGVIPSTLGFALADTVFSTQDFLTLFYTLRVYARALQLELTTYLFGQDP

SMILES	Ki (S2R [1]; read-out: Ki S2R) [nM]	Ki (S1R [2]) [nM]	S2R/S1R selectivity ratio (S1R [2])	Ki (S1R [2]; read-out: Ki S1R) [nM]	IC50 H2O2 [5] [µg/mL]	other results
CC(C(=O)c1ccccc1)N1CCCN(Cc2ccccc2)CC1 (stereo not drawn) [5a, 2-(4-Benzyl-1,4-diazepan-1-yl)-1-phenylpropan-1-one]	108 ± 21	69 ± 14	1.6			
CC(C(=O)c1ccccc1)N1CCN(c2ccccc2)CC1 (stereo not drawn) [5b, 2-(4-Phenylpiperazin-1-yl)-1-phenylpropan-1-one]	158 ± 30		0.05	2930 ± 1150		melting point: 105 to 106 °C
CC(C(=O)c1ccccc1)N(C)CCCCc1ccccc1 (stereo not drawn) [5c, 2-(Methyl(4-phenylbutyl)amino)-1-phenylpropan-1-one]	733 ± 106		0.15	4720 ± 1690		
CC(C(=O)c1ccccc1)N1CCN(Cc2ccccc2)CC1 (stereo not drawn) [5d, 2-(4-Benzylpiperazin-1-yl)-1-phenylpropan-1-one]	302 ± 65	8 ± 1	38		14.56 ± 0.18 (≈ 47.2 µM)	NRF2 mRNA levels, fold increase compared to DMSO [3]: 1.7 fold; IC50 ([4]; SH-SY5Y cells): 118000 nM; IC50 ABTS (ABTS radical scavenging): 2.854 ± 0.11 µg/mL (≈ 9.25 µM); SOD1 mRNA levels, fold increase compared to DMSO [6]: 1.3 fold
COc1ccc(C(=O)C(C)N2CCCN(Cc3ccccc3)CC2)cc1 (stereo not drawn) [5e, 2-(4-Benzyl-1,4-diazepan-1-yl)-1-(4-methoxyphenyl)propan-1-one]		12 ± 2	8.1		12.65 ± 0.21 (≈ 35.9 µM)	Ki (S2R [1]): 97 ± 17 nM; effect on NRF2 expression (in words) [3]: did not change its expression significantly; IC50 ([4]; SH-SY5Y cells): 74000 nM; IC50 ABTS (ABTS radical scavenging): 2.495 ± 0.09 µg/mL (≈ 7.08 µM); effect on SOD1 expression (in words) [6]: did not significantly alter
COc1ccc(C(=O)C(C)N2CCN(c3ccccc3)CC2)cc1 (stereo not drawn) [5f, 2-(4-Phenylpiperazin-1-yl)-1-(4-methoxyphenyl)propan-1-one]	989 ± 337		0.53	1860 ± 987		melting point: 117 to 119 °C
COc1ccc(C(=O)C(C)N(C)CCCCc2ccccc2)cc1 (stereo not drawn) [5g, 1-(4-Methoxyphenyl)-2-(methyl(4-phenylbutyl)amino)propan-1-one]	386 ± 110		3.3	117 ± 18		
COc1ccc(C(=O)C(C)N2CCN(Cc3ccccc3)CC2)cc1 (stereo not drawn) [5h, 2-(4-Benzylpiperazin-1-yl)-1-(4-methoxyphenyl)propan-1-one]		1.4 ± 0.2			466.24 ± 1.36 (≈ 1380 µM)	Ki (S2R [1]): 84 ± 31 nM; effect on NRF2 expression (in words) [3]: significant decrease; IC50 ([4]; SH-SY5Y cells): 117000 nM; effect on SOD1 expression (in words) [6]: dramatically reduced
CC(C(=O)c1ccc(O)cc1)N1CCCN(Cc2ccccc2)CC1 (stereo not drawn) [5i, 2-(4-Benzyl-1,4-diazepan-1-yl)-1-(4-hydroxyphenyl)propan-1-one]		19 ± 3	1.1		13.11 ± 0.24 (≈ 38.7 µM)	Ki (S2R [1]): 22 ± 4 nM; NRF2 mRNA levels, fold increase compared to DMSO [3]: 2.8 fold; IC50 ([4]; SH-SY5Y cells): 294000 nM; IC50 ABTS (ABTS radical scavenging): 2.603 ± 0.09 µg/mL (≈ 7.69 µM); effect on SOD1 expression (in words) [6]: did not significantly alter
CC(C(=O)c1ccc(O)cc1)N(C)CCCCc1ccccc1 (stereo not drawn) [5j, 1-(4-Hydroxyphenyl)-2-(methyl(4-phenylbutyl)amino)propan-1-one]			0.38	121 ± 22		Ki (S2R [1]): 45 ± 4 nM
CC(C(=O)c1ccc(O)cc1)N1CCN(Cc2ccccc2)CC1 (stereo not drawn) [5k, 2-(4-Benzylpiperazin-1-yl)-1-(4-hydroxyphenyl)propan-1-one]	129 ± 23	19 ± 2	6.8		436.43 ± 1.17 (≈ 1350 µM)	effect on NRF2 expression (in words) [3]: significant decrease; melting point: 58 to 59 °C; IC50 ([4]; SH-SY5Y cells): 132000 nM; effect on SOD1 expression (in words) [6]: dramatically reduced
CC(C(=O)c1ccc(O)cc1)N1CCN(c2ccccc2)CC1 (stereo not drawn) [5l, 2-(4-Phenylpiperazin-1-yl)-1-(4-hydroxyphenyl)propan-1-one]	147 ± 17		0.18	785 ± 226		melting point: 163 to 165 °C
CC(C(O)c1ccccc1)N(C)CCCCc1ccccc1 (stereo not drawn) [5m, 2-(Methyl(4-phenylbutyl)amino)-1-phenylpropan-1-ol]		37 ± 10	0.81			Ki (S2R [1]): 30 ± 8 nM
COc1ccc(C(O)C(C)N(C)CCCCc2ccccc2)cc1 (stereo not drawn) [5n, 1-(4-Methoxyphenyl)-2-(methyl(4-phenylbutyl)amino)propan-1-ol]	479 ± 93	38 ± 9	13			
COc1ccc(C(O)C(C)N2CCCN(Cc3ccccc3)CC2)cc1 (stereo not drawn) [5o, 2-(4-Benzyl-1,4-diazepan-1-yl)-1-(4-methoxyphenyl)propan-1-ol]	128 ± 26		32	4.2 ± 0.6	12.13 ± 0.25 (≈ 34.2 µM)	effect on NRF2 expression (in words) [3]: significant decrease; IC50 ([4]; SH-SY5Y neuroblastoma cells): 118000 nM; IC50 ABTS (ABTS radical scavenging): 2.481 ± 0.05 µg/mL (≈ 7 µM); effect on SOD1 expression (in words) [6]: dramatically reduced
COc1cc2c(cc1OC)C(=O)C(CC1CCN(Cc3ccccc3)CC1)C2 (stereo not drawn) [Donepezil]						Ki (S1R [7]; donepezil): 14.6 nM
O=C(CCCN1CCC(O)(c2ccc(Cl)cc2)CC1)c1ccc(F)cc1 [Haloperidol, reference compound]						effect on NRF2 expression (in words) [3]: did not cause significant changes; IC50 ([4]; SH-SY5Y neuroblastoma cells): 23000 nM; effect on SOD1 expression (in words) [6]: did not cause significant changes
CC(C(O)c1ccc(O)cc1)N1CCC(Cc2ccccc2)CC1 (stereo not drawn) [Ifenprodil]						Ki (S1R [7]; ifenprodil, Table 2 footnote b): 125 ± 24 nM; S2R/S1R selectivity ratio (S1R [8]): 0.75; Ki (S2R [9]): 98 ± 34 nM
CCCN(CCC)CCc1ccc(OC)c(OCCc2ccccc2)c1 [NE100, reference compound]						IC50 (SH-SY5Y cells): 49000 nM
Fc1ccc(-n2cc(CCCCN3CCC4(CC3)OCc3ccccc34)c3ccccc32)cc1 [Siramesine, reference compound]						IC50 ([4]; SH-SY5Y neuroblastoma cells): 2000 nM
Cc1c(C)c2c(c(C)c1O)CCC(C)(C(=O)O)O2 (stereo not drawn) [Trolox, 6-hydroxy-2,5,7,8-tetramethylchroman-2-carboxylic acid, reference compound]					15.69 ± 0.69 (≈ 62.7 µM)	IC50 ABTS (ABTS radical scavenging): 2.365 ± 0.19 µg/mL (≈ 9.45 µM)
